Data published in the supplement of paper PMC11208160.

test: recombinant UMI read abundance after kanamycin selection (control-corrected) (log10(CPM+1)); higher = more efficient recombination; extreme values may be limits of the assay; sequences stand for … in AGTGCAGAGAAAATCGGCCAGTTTTCTCTGCCTGCAGTCCGCATGCCGTGGGACCCCTTGGGTTCTAACCTGTTGCCTAGATTTATGCAGCGGACTGCCTTTCTCCCAAAGTGATAAACCGG…AGGTTGGTTTCACT; site = the 11-nt donor
Summary of the method: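 Values are reported as log10(CPM+1), obtained by converting sequencing counts to CPM, averaging replicates and scaling by control-derived factors. The counts came from recombinant UMIs amplified by PCR across the donor–target junction. These UMIs came from a pooled Escherichia coli screen of donor and donor-binding-loop pairs for the IS621 bridge recombinase, plated with IPTG (0.07 mM) plus kanamycin or left unselected, in two replicates each.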
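Note: IS621 bridge recombinase in Escherichia coli cells against a fixed T5 target plasmid.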

Sequence	recombinant UMI read abundance (log10)
GGGGACTCATGGACCGGTTTTCCCGGTAATCCGTATTTGCA (site GGGGACTCTTG)	1.89
GGGGAGACATGGACCGGTTTTCCCGGTAATCCGTATTTGCC (site GGGGAGACTGG)	2.07
GGGGATGCATGGACCGGTTTTCCCGGTAATCCGTATTTGGC (site GGGGATGCTGC)	0
GGGGCACCATGGACCGGTTTTCCCGGTAATCCGTATTTGTA (site GGGGCACCTTA)	0
GGGGCACCATGGACCGGTTTTCCCGGTAATCCGTATTTGTA (site GGGGCACCTTC)	0.0203
GGGGCACCATGGACCGGTTTTCCCGGTAATCCGTATTTGTA (site GGGGCACCTTG)	0.00274
GGGGCACCATGGACCGGTTTTCCCGGTAATCCGTATTTGTA (site GGGGCACCTTT)	0.0754
GGGGCAGCATGGACCGGTTTTCCCGGTAATCCGTATTTGCA (site GGGGCAACTTG)	1.47
GGGGCAGCATGGACCGGTTTTCCCGGTAATCCGTATTTGCA (site GGGGCACCTTG)	0
GGGGCAGCATGGACCGGTTTTCCCGGTAATCCGTATTTGCA (site GGGGCAGCTTG)	2.13
GGGGCAGCATGGACCGGTTTTCCCGGTAATCCGTATTTGCA (site GGGGCATCTTG)	0.336
GGGGCCCCATGGACCGGTTTTCCCGGTAATCCGTATTTGGC (site GGGGCCCCTGC)	0
GGGGCGCCATGGACCGGTTTTCCCGGTAATCCGTATTTGCA (site GGGGCACCTTG)	0.0167
GGGGCGCCATGGACCGGTTTTCCCGGTAATCCGTATTTGCA (site GGGGCCCCTTG)	0
GGGGCGCCATGGACCGGTTTTCCCGGTAATCCGTATTTGCA (site GGGGCGCCTTG)	0.0101
GGGGCGCCATGGACCGGTTTTCCCGGTAATCCGTATTTGCA (site GGGGCTCCTTG)	0
GGGGCTCCATGGACCGGTTTTCCCGGTAATCCGTATTTGCA (site GGGGCACCTTG)	0.0623
GGGGCTCCATGGACCGGTTTTCCCGGTAATCCGTATTTGCA (site GGGGCCCCTTG)	0.407
GGGGCTCCATGGACCGGTTTTCCCGGTAATCCGTATTTGCA (site GGGGCGCCTTG)	0.0195
GGGGCTCCATGGACCGGTTTTCCCGGTAATCCGTATTTGCA (site GGGGCTCCTTG)	1.13
GGGGTAGCATGGACCGGTTTTCCCGGTAATCCGTATTTGTC (site GGGGTAGCTGA)	2.71
GGGTAATCATGGACCGGTTTTCCCGGTAATCCGTATTTGAT (site GGGTAATCTAT)	3.04
GGGTACGCATGGACCGGTTTTCCCGGTAATCCGTATTTGTA (site GGGTACGCTTA)	2.47
GGGTAGACATGGACCGGTTTTCCCGGTAATCCGTATTTGCC (site GGATAGACTGG)	2.81
GGGTAGACATGGACCGGTTTTCCCGGTAATCCGTATTTGCC (site GGCTAGACTGG)	0

Sequence	recombinant UMI read abundance (log10)
GGGTAGACATGGACCGGTTTTCCCGGTAATCCGTATTTGCC (site GGGTAGACTGG)	2.39
GGGTAGACATGGACCGGTTTTCCCGGTAATCCGTATTTGCC (site GGTTAGACTGG)	0.949
GGTAATTCATGGACCGGTTTTCCCGGTAATCCGTATTTGGT (site GGTAATTCTAC)	1.18
GGTACATCATGGACCGGTTTTCCCGGTAATCCGTATTTGTT (site GGTACATCTAA)	0.0632
GGTACATCATGGACCGGTTTTCCCGGTAATCCGTATTTGTT (site GGTACCTCTAA)	0.00401
GGTACATCATGGACCGGTTTTCCCGGTAATCCGTATTTGTT (site GGTACGTCTAA)	0.0133
GGTACATCATGGACCGGTTTTCCCGGTAATCCGTATTTGTT (site GGTACTTCTAA)	0.00584
GGTACGTCATGGACCGGTTTTCCCGGTAATCCGTATTTGGA (site GGTACGTCTTC)	0.695
GGTACTCCATGGACCGGTTTTCCCGGTAATCCGTATTTGTA (site GGTACTCCTTA)	0.301
GGTACTGCATGGACCGGTTTTCCCGGTAATCCGTATTTGGA (site GGTACTGCTTC)	0.135
GGTACTTCATGGACCGGTTTTCCCGGTAATCCGTATTTGTT (site GGTACATCTAA)	0.0111
GGTACTTCATGGACCGGTTTTCCCGGTAATCCGTATTTGTT (site GGTACCTCTAA)	0.0128
GGTACTTCATGGACCGGTTTTCCCGGTAATCCGTATTTGTT (site GGTACGTCTAA)	0.011
GGTACTTCATGGACCGGTTTTCCCGGTAATCCGTATTTGTT (site GGTACTTCTAA)	0.456
GGTAGGTCATGGACCGGTTTTCCCGGTAATCCGTATTTGTT (site GGTAAGTCTAA)	0.00393
GGTAGGTCATGGACCGGTTTTCCCGGTAATCCGTATTTGTT (site GGTACGTCTAA)	0.0163
GGTAGGTCATGGACCGGTTTTCCCGGTAATCCGTATTTGTT (site GGTAGGTCTAA)	0.00338
GGTAGGTCATGGACCGGTTTTCCCGGTAATCCGTATTTGTT (site GGTATGTCTAA)	0.0159
GGTAGTGCATGGACCGGTTTTCCCGGTAATCCGTATTTGCC (site GGTAGTGCTGG)	1.61
GGTATGGCATGGACCGGTTTTCCCGGTAATCCGTATTTGCA (site GGTATGGCTTG)	1.9
GGTCATCCATGGACCGGTTTTCCCGGTAATCCGTATTTGAA (site GGTCATCCTTT)	0.0104
GGTCATTCATGGACCGGTTTTCCCGGTAATCCGTATTTGTG (site GGTCATTCTCA)	1.05
GGTCCAACATGGACCGGTTTTCCCGGTAATCCGTATTTGAA (site GGTCCAACTTA)	0.0074
GGTCCAACATGGACCGGTTTTCCCGGTAATCCGTATTTGAA (site GGTCCAACTTC)	0.00549
GGTCCAACATGGACCGGTTTTCCCGGTAATCCGTATTTGAA (site GGTCCAACTTG)	0

Sequence	recombinant UMI read abundance (log10)
GGTCCAACATGGACCGGTTTTCCCGGTAATCCGTATTTGAA (site GGTCCAACTTT)	0.0109
GGTCCAACATGGACCGGTTTTCCCGGTAATCCGTATTTGTT (site GGTCCAACTAA)	0.0107
GGTCCAACATGGACCGGTTTTCCCGGTAATCCGTATTTGTT (site GGTCCAACTCA)	0.0106
GGTCCAACATGGACCGGTTTTCCCGGTAATCCGTATTTGTT (site GGTCCAACTGA)	0.00734
GGTCCAACATGGACCGGTTTTCCCGGTAATCCGTATTTGTT (site GGTCCAACTTA)	0.0123
GGTCCGACATGGACCGGTTTTCCCGGTAATCCGTATTTGTA (site GGTCCAACTTA)	0.0275
GGTCCGACATGGACCGGTTTTCCCGGTAATCCGTATTTGTA (site GGTCCCACTTA)	0.00256
GGTCCGACATGGACCGGTTTTCCCGGTAATCCGTATTTGTA (site GGTCCGACTTA)	0.0268
GGTCCGACATGGACCGGTTTTCCCGGTAATCCGTATTTGTA (site GGTCCTACTTA)	0.0182
GGTCCGGCATGGACCGGTTTTCCCGGTAATCCGTATTTGTC (site GGTCCGGCTGA)	0
GGTCCTACATGGACCGGTTTTCCCGGTAATCCGTATTTGTA (site GGTCCAACTTA)	0.00723
GGTCCTACATGGACCGGTTTTCCCGGTAATCCGTATTTGTA (site GGTCCCACTTA)	0.0198
GGTCCTACATGGACCGGTTTTCCCGGTAATCCGTATTTGTA (site GGTCCGACTTA)	0.0128
GGTCCTACATGGACCGGTTTTCCCGGTAATCCGTATTTGTA (site GGTCCTACTTA)	0.0187
GGTCCTCCATGGACCGGTTTTCCCGGTAATCCGTATTTGTT (site GGTCCTCCTAA)	0.025
GGTCGAGCATGGACCGGTTTTCCCGGTAATCCGTATTTGCA (site GATCGAGCTTG)	0.273
GGTCGAGCATGGACCGGTTTTCCCGGTAATCCGTATTTGCA (site GCTCGAGCTTG)	0.0115
GGTCGAGCATGGACCGGTTTTCCCGGTAATCCGTATTTGCA (site GGTCGAGCTTG)	1.83
GGTCGAGCATGGACCGGTTTTCCCGGTAATCCGTATTTGCA (site GTTCGAGCTTG)	0.824
GGTCGCTCATGGACCGGTTTTCCCGGTAATCCGTATTTGCT (site GGTCGCTCTAG)	0.782
GGTCGGCCATGGACCGGTTTTCCCGGTAATCCGTATTTGAA (site GGTCGGCCTTT)	0
GGTGAGCCATGGACCGGTTTTCCCGGTAATCCGTATTTGGG (site GGTGAGCCTCC)	0.0257
GGTGCATCATGGACCGGTTTTCCCGGTAATCCGTATTTGCT (site GGTGCATCTAG)	1.92
GGTGCCCCATGGACCGGTTTTCCCGGTAATCCGTATTTGAC (site GGTGCCCCTGT)	0
GGTGGAACATGGACCGGTTTTCCCGGTAATCCGTATTTGTT (site AGTGGAACTAA)	0.371
